Measured values: patent US11530244B2, “Cyclic polypeptides for PCSK9 inhibition” (priority 2018, dated 2022)
Starred links: 1 amine or outer side, 2 acyl side, 3 side chain; linkers in the order of their positions; H or OH if unused. Positions of bridges follow the written chain, without caps; N, C: chain ends. Non-standard residues stand in square brackets, D forms with d. Residues, ends and D or L forms follow the SMILES beside them. Groups on a side chain read outwards from the residue. *: point of attachment. X50 = C[C@@H](N[*:1])C(=O)C[C@@H](Cc1c[nH]c2ccc(F)cc12)C(=O)[*:2]; NHCH2C6H4(p)CH2CH2NH = c1cc(CN[*:1])ccc1CCN[*:2]; Trp(5-F) = N[C@@H](Cc1c[nH]c2ccc(F)cc12)C(=O)O; Phe(4-CH2NH2) = NCc1ccc(C[C@H](N)C(=O)O)cc1; Pro(cis-4-F) = O=C(O)[C@@H]1C[C@H](F)CN1; γGlu = O=C(O)[C@H](CCC(=O)[*:2])N[*:1]; mXylylene = c1cc(C[*:1])cc(C[*:2])c1; Palmitoyl = CCCCCCCCCCCCCCCC(=O)*; X44 = O=C(C[*:2])NCCCC(=O)[*:1]; Suc = O=C(CCC(=O)[*:2])[*:1]; αMeP = C[C@@]1(C(=O)O)CCCN1; 3Amb = NCc1cccc(C(=O)O)c1; Orn = NCCC[C@H](N)C(=O)O; AEEA = NCCOCCOCC(=O)O; X2 = O=C(C[*:2])[*:1]; Mpa = O=C(O)CCS

Tests used:
PCSK9 [1] = target: T1, PCSK9 (Homo sapiens (Human), UniProt Q8NBP7); experiment: PCSK9 Alexa FRET Standard assay (displacement of AlexaFluor647 tagged cyclic peptide Reagent A); assay type: binding; conditions: PCSK9 Alexa FRET Standard assay, 0.5 nM PCSK9, 20 nM AF cyclic peptide Reagent A; read-out: IC50
T1 sequence (Q8NBP7 153-692): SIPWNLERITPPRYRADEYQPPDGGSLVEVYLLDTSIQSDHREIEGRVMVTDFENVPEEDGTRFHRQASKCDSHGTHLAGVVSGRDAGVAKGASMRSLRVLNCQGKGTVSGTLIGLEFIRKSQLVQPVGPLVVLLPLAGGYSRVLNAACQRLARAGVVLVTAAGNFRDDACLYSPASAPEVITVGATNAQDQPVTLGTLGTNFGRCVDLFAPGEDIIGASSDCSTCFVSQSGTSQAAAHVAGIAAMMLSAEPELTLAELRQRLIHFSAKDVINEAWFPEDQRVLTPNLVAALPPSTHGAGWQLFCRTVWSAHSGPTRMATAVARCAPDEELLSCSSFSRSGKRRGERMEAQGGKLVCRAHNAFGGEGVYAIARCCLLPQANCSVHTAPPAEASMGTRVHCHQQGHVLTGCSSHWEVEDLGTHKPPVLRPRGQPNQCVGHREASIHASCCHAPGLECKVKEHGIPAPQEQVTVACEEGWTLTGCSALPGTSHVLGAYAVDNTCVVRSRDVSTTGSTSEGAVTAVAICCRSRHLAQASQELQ
How it was run: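 TR-FRET displacement: 0.5 nM biotinylated PCSK9 with 1.25 nM Strep-Eu and 20 nM AlexaFluor-tagged cyclic peptide (final) in 50 mM HEPES pH 7.4, 0.15 M NaCl, 5 mM CaCl2, 0.01% BSA, 0.01% P20, ≥2 h at room temperature. IC50 from sigmoidal fit, converted to Ki via peptide KD; falling Eu counts flagged false positives.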

PCSK9 [2] = target: T1, PCSK9; experiment: PCSK9 Alexa FRET Plus assay (displacement of AlexaFluor647 tagged cyclic peptide Reagent B); assay type: binding; conditions: 0.5 nM PCSK9, 960 nM AF cyclic peptide Reagent B
Procedure: A solution containing 1 nM biotinylated PCSK9+2.5 nM Lance Streptavidin Europium (Strep-Eu) was made in 50 mM HEPES pH 7.4, 0.15 M NaCl, 5 mM CaCl2), 0.01% BSA, and 0.01% Surfactant P20. A separate solution containing 1920 nM of the AlexaFluor tagged cyclic peptide was made in the same buffer system. An Echo was used to transfer 0.075 ul of compound plus 0.675 ul of DMSO to each well of an assay plate followed by the addition of 15 ul of PCSK9+Stept-Eu and 15 ul of AF peptide. The final assay volume was 30.750 ul containing 0.5 nM PCSK9, 1.25 nM Strep-Eu, and 960 nM AF cyclic peptide. The reaction was incubated at room temperature for at least two hours prior to fluorescence measurements using an Envision Multilabel Reader. IC50 values were determined by fitting data to a sigmoidal dose-response curve using nonlinear regression. Ki was then calculated from the IC50 and the KD of AF cyclic peptide. Counts (B-counts) of the europium-labeled PCSK9 were followed to observe if compounds were adversely affecting PCSK9. A fall off of the B-counts likely indicated a false positive of inhibition. Data from this procedure was reported as “P=‘numerical value’ (nanomolar)”

[3] = Alexa FRET Plus, read-out: IC50

Row | IC50 (PCSK9 [2]; [3]) [nM] | Compound | IC50 (PCSK9 [1]) [nM] | IC50 (PCSK9 [2]; IC50, Alexa FRET Plus) [nM]
1 | 0.1 to 100 | C[C@H]1NC(=O)[C@H](CCCCN)NC(=O)CCSCc2cccc(c2)CSC[C@@H](C(N)=O)NC(=O)[C@]2(C)CCCN2C(=O)[C@H](Cc2ccc(O)cc2)NC(=O)c2cccc(c2)CNC(=O)[C@H](Cc2c[nH]c3ccc(F)cc23)NC(=O)[C@H](Cc2c[nH]c3ccc(F)cc23)NC1=O [Compound 089] ([Mpa]K[dA][Trp(5-F)][Trp(5-F)][3Amb]Y[αMeP]C-NH2; linker 1-9 via mXylylene) | 0.11 to 100 | –
2 | 100 to 500 | COc1ccc(C[C@@H]2NC(=O)[C@H]([C@@H](C)O)NC(=O)[C@@H]3C[C@H](F)CN3C(=O)[C@H](Cc3c[nH]c4ccc(F)cc34)NC(=O)[C@H](Cc3c[nH]c4ccc(F)cc34)NC(=O)[C@@H](C)NC(=O)[C@H](CCCCN)NC(=O)[C@@H](NC(C)=O)CCCNC(=O)COc3ccc(cc3)C[C@@H](C(N)=O)NC(=O)[C@]3(C)CCCN3C2=O)cc1 [Compound 091] (Ac-[Orn]K[dA][Trp(5-F)][Trp(5-F)][Pro(cis-4-F)]TY(Me)[αMeP]Y-NH2; linker 1-10 via X2) | 0.11 to 100 | –
3 | 0.1 to 100 | COc1ccc(C[C@@H]2NC(=O)[C@H]([C@@H](C)O)NC(=O)[C@@H]3C[C@H](F)CN3C(=O)[C@H](Cc3c[nH]c4ccc(F)cc34)NC(=O)[C@H](Cc3c[nH]c4ccc(F)cc34)NC(=O)[C@@H](C)NC(=O)[C@H](CCCCN)NC(=O)CCCNC(=O)COc3ccc(cc3)C[C@@H](C(N)=O)NC(=O)[C@]3(C)CCCN3C2=O)cc1 [Compound 092] (K[dA][Trp(5-F)][Trp(5-F)][Pro(cis-4-F)]TY(Me)[αMeP]Y-NH2; linker N-9 via X44) | 0.11 to 100 | –
4 | 100 to 500 | CCCCCCCCCCCCCCCC(=O)N[C@@H](CCC(=O)NCCOCCOCC(=O)NCCOCCOCC(=O)NCCCC[C@@H]1NC(=O)[C@H](Cc2c[nH]c3ccc(F)cc23)NC(=O)[C@H](Cc2c[nH]c3ccc(F)cc23)CC(=O)[C@@H](C)NC(=O)[C@H](CCCCN)NC(=O)CCSCc2cccc(c2)CSC[C@@H](C(N)=O)NC(=O)[C@]2(C)CCCN2C(=O)[C@H](Cc2ccc(O)cc2)NC(=O)[C@H]([C@@H](C)O)NC1=O)C(=O)O [Compound 101] ([Mpa]K[X50][Trp(5-F)]K([AEEA-AEEA-γGlu-Palmitoyl])TY[αMeP]C-NH2; linker 1-9 via mXylylene) | 0.11 to 100 | –
5 | – | COc1ccc(C[C@@H]2NC(=O)[C@H]([C@@H](C)O)NC(=O)[C@@H]3C[C@H](F)CN3C(=O)[C@H](Cc3c[nH]c4ccc(F)cc34)NC(=O)[C@H](Cc3c[nH]c4ccc(F)cc34)NC(=O)[C@@H](C)NC(=O)CNC(=O)[C@@H](NC(C)=O)CCNCc3ccc(cc3)C[C@@H](C(N)=O)NC(=O)[C@]3(C)CCCN3C2=O)cc1 [Compound 102] | 0.11 to 100 | 500 to 5000

Row | Compound | IC50 (PCSK9 [2]; [3]) [nM] | IC50 (PCSK9 [1]) [nM] | IC50 (PCSK9 [2]; IC50, Alexa FRET Plus) [nM]
6 | COc1ccc(C[C@@H]2NC(=O)[C@H]([C@@H](C)O)NC(=O)[C@@H]3CC[C@H](F)N3C(=O)[C@H](Cc3c[nH]c4ccc(F)cc34)NC(=O)[C@H](Cc3c[nH]c4ccc(F)cc34)NC(=O)[C@@H](C)NC(=O)c3ccc(cc3)-c3ccc(cc3)CNCc3ccc(cc3)C[C@@H](C(N)=O)NC(=O)[C@]3(C)CCCN3C2=O)cc1 [Compound 093] | 500 to 5000 | 1000 to 12100 | –
7 | COc1ccc(C[C@@H]2NC(=O)[C@H]([C@@H](C)O)NC(=O)[C@@H]3C[C@H](F)CN3C(=O)[C@H](Cc3c[nH]c4ccc(F)cc34)NC(=O)[C@H](Cc3c[nH]c4ccc(F)cc34)NC(=O)[C@@H](C)NC(=O)[C@H](CCCCN)NC(=O)[C@@H](NC(C)=O)CC(=O)NCc3ccc(cc3)CCNC(=O)[C@]3(C)CCCN3C2=O)cc1 [Compound 095] (Ac-DK[dA][Trp(5-F)][Trp(5-F)][Pro(cis-4-F)]TY(Me)[αMeP]; linker 1-C via NHCH2C6H4(p)CH2CH2NH) | 500 to 5000 | 100 to 1000 | –
8 | COc1ccc(C[C@@H]2NC(=O)[C@H]([C@@H](C)O)NC(=O)[C@@H]3C[C@H](F)CN3C(=O)[C@H](Cc3c[nH]c4ccc(F)cc34)NC(=O)[C@H](Cc3c[nH]c4ccc(F)cc34)NC(=O)[C@@H](C)NC(=O)[C@H](CCCCN)NC(=O)CCC(=O)NCc3ccc(cc3)C[C@@H](C(N)=O)NC(=O)[C@]3(C)CCCN3C2=O)cc1 [Compound 097] (K[dA][Trp(5-F)][Trp(5-F)][Pro(cis-4-F)]TY(Me)[αMeP][Phe(4-CH2NH2)]-NH2; linker N-9 via Suc) | 500 to 5000 | 0.11 to 100 | –
